The text below walks through data of US20040116420A1 (priority 2001, published 2004).

The target of one experiment is T1, HSV-1 protease (Human herpesvirus 1, UniProt P10210).
T1 construct: 6xHis (N); made in house; host or cells: baculovirus expression system
Description: Enzymatic assay for HSV-1 protease (assembly) inhibitor, fluorescence polarization. It counts as biochemical. Conditions: read-out: HSV-1 Enzyme inhibition IC50. Here is the method:
An enzymatic assay method for an HSV-1 protease (assembly) inhibitor
The activity of an assembly protease was determined by fluorescence polarization. Biotin-gamma-amino butyrate-[…]-DTAF was used as a fluorescent substrate in accordance with an HSV-1 release and cleavage site. […] Changes in the sizes of fluorescent substrate molecules that increased with the use of avidin as a reaction terminator were assayed by fluorescence polarization.
The test compound was dissolved in DMF, and the resultant was diluted 5-fold with an assay buffer. 6.5 μl thereof was added to wells of a 96-well plate (a U-bottomed 96-well plate, Coster) that had previously been blocked with a blocking solution (10 mM Tris-HCl (pH 8.0), 150 mM sodium chloride, 0.05% Tween 20, 1 mg/ml of BSA). The enzyme was diluted to 21.3 μg/ml with an assay buffer (1M sodium citrate, 50 mM sodium phosphate (pH 7.4), 100 mM sodium chloride, 20% glycerol, 2 mM TCEP), and 48.5 μl of the resultant was added to each well. The plate was incubated at room temperature for 30 minutes, and 10 μl of 62.5 μg/ml substrate solution was then added to each well. The plate was incubated at room temperature for 60 minutes, and 50 μl of 2 mg/ml avidin phosphate buffer solution (50 mM sodium phosphate, 100 mM sodium chloride (pH 7.4)) was added to each well. The activity was determined in comparison with a compound without protease inhibitor using a microplate reader for fluorescence polarization.
HSV-1 protease was purified from a vaculovirus that had expressed a DNA construct encoding the reading frame for HSV-1UL26. This construct had further encoded 6 histidine residues at the amino terminus of the protease. These additional histidine residues impart affinity ligands purified by nickel-nitriloacetic acid-agarose (Qiagen). The purified protease was stored as a stock solution for a 20 mM HEPES buffer (pH 8.5, containing 20% v/v glycerin). This stock solution was diluted with an assay buffer and then used in the enzyme reaction.
In accordance with the cleavage specificity of the HSV-1 protease at the “release site” of the assembled protein, a specific substrate was synthesized (Diianni et al., J. Biol. Chem. 268, 2048 (1993)). This assembly protein-release site had the sequence • HTYLQA*SEKFKMW • , and the substrate used was biotin-gamma-amino butyrate-HTYLQA*SERFRIK-DTAF. This is a standard method for peptide synthesis, for example, as in the a method described in “The Practice of Peptide Synthesis” (Bodansky and Bodansky (1984)). The product was stored as a 2.5 mg/ml stock solution in DMF. The resultant was diluted to 62.5 μg/ml with a phosphate buffer (50 mM sodium phosphate, 100 mM sodium chloride, (pH 7.4)) immediately before its use.
An assay buffer (1M sodium citrate, 50 mM sodium phosphate (pH 7.4), 100 mM sodium chloride, 20% glycerol, 2 mM TCEP) was used to dilute a stock solution for the enzyme and that for the inhibitor.

In a further experiment the test system is HSV-1. Description: Antiviral activity, HSV-1 in Vero cells, plaque method. The settings on record: Human alphaherpesvirus 1, 20 hours, 90% inhibition of plaque formation. It counts as cell-based. The method, then:
An Assay Method for Antiviral Activity These complementary assay methods examine the capacity of a compound to inhibit the generation of new viruses and to inhibit the toxicity of the compound against the host cell. Toxicity indirectly decreases the generation of viruses. Thus, it is important to simultaneously conduct both assays in order to directly compare the results. The Vero cells were sown on a 96-well plate and then cultured overnight. The culture supernatant was removed, and 100 μl of 2% FBS-DMEM containing 50,000 plaque-forming units (hereinafter abbreviated as “pfu”) of HSV-1 was added. A viral solution was removed and 200 μl of 2% FBS-DMEM comprising a test compound was added. In this case, a substance to which 2% FBS-DMEM not comprising any test compound had been added was determined as a control. These infected cells were incubated in the presence of 5% CO2 at 37° C. for 20 hours, and the medium was once allowed to freeze at −80° C. The culture solution was dissolved, and the amount of viruses in the culture solution was assayed by the plaque method. The concentration of the test compound when it inhibited 90% of plaque formation relative to the control was determined to be EC 90.

T1 sequence (P10210 1-247): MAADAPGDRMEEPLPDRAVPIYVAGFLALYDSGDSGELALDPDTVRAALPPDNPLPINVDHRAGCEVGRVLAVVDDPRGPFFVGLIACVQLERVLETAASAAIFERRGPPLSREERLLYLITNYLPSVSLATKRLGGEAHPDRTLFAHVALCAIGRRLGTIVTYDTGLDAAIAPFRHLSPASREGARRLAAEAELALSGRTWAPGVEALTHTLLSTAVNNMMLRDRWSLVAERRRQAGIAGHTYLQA

As usually defined, the IC50 is the midpoint of a concentration-inhibition curve. By EC90 is commonly meant the concentration at which the effect reaches the 90% level. Read a low EC90 as greater potency. For the compound `Cc1c(NC(=O)CCCNC(=O)c2cccs2)ccc2nc(N[C@@H](C)C(=O)N(C)CCc3ccccn3)oc(=O)c12` [Compound No.218, Thiophene-2-carboxylic acid [3-(5-methyl-2-{1S-[methyl-(2-pyridin-2-yl-ethyl)-carbamoyl]-ethylamino}-4-oxo-4H-benzo[d][1,3]oxazin-6-ylcarbamoyl)-propyl]-amide], the half-inhibitory concentration (IC50) on HSV-1 protease amounted to 0.4 µM. Moreover, the 90% effect concentration (EC90) in the experiment on HSV-1 is more than 12.5 µM.

As for `Cc1c(NC(=O)CCCNC(=O)OCc2ccccc2)ccc2nc(NC(C)(C)C(=O)N(C)CCc3ccccn3)oc(=O)c12` [Compound No.204, [3-(5-Methyl-2-{1-methyl-1-[methyl-(2-pyridin-2-yl-ethyl)-carbamoyl]-ethylamino}-4-oxo-4H-benzo[d][1,3]oxazin-6-ylcarbamoyl)-propyl]-carbamic acid benzyl ester], the 50% inhibitory concentration (IC50) at HSV-1 protease was determined as 0.3 µM. The EC90 in the experiment with HSV-1 was more than 12.5 µM.

Turning to `Cc1c(NC(=O)CCCNC(=O)c2ccncc2)ccc2nc(NC(C)(C)C(=O)N(C)CCc3ccccn3)oc(=O)c12`, the IC50 on HSV-1 protease amounted to 0.5 µM. Also, the 90% effect concentration (EC90) in the experiment with HSV-1 is more than 12.5 µM.

Consider `Cc1c(NC(=O)CCCNC(=O)OC(C)(C)C)ccc2nc(N[C@@H](C)C(=O)N(C)CCc3ccccn3)oc(=O)c12` [Compound No.207, [3-(5-Methyl-2-{1S-[methyl-(2-pyridin-2-yl-ethyl)-carbamoyl]-ethylamino}-4-oxo-4H-benzo[d][1,3]oxazin-6-ylcarbamoyl)-propyl]-carbamic acid tert-butyl ester], for which the half-inhibitory concentration (IC50) on HSV-1 protease came to 1.1 µM. Moreover, in the experiment on HSV-1, the EC90 was more than 12.5 µM.

In the case of `Cc1c(NC(=O)CCNC(=O)OC(C)(C)C)ccc2nc(N[C@@H](C)C(=O)N(C)CCc3ccccn3)oc(=O)c12` [Compound No.205, [2-(5-Methyl-2-{1S-[methyl-(2-pyridin-2-yl-ethyl)-carbamoyl]-ethylamino}-4-oxo-4H-benzo[d][1,3]oxazin-6-ylcarbamoyl)-ethyl]-carbamic acid tert-butyl ester], the concentration for half-maximal inhibition (IC50) on HSV-1 protease was found to be 2.5 µM. Also, the EC90 in the experiment with HSV-1 is more than 20 µM.

Regarding `Cc1c(NC(=O)CCNC(=O)OC(C)(C)C)ccc2nc(NCC(=O)N(C)CCc3ccccn3)oc(=O)c12` [Compound No.228, {2-[5-Methyl-2-({[methyl-(2-pyridin-2-yl-ethyl)-carbamoyl]-methyl}-amino)-4-oxo-4H-benzo[d][1,3]oxazin-6-ylcarbamoyl]-ethyl}-carbamic acid tert-butyl ester], at HSV-1 protease, the IC50 came out at 0.7 µM. The same compound registered an EC90 with HSV-1 of more than 20 µM.

In the case of `Cc1c(NC(=O)CCNC(=O)OC(C)(C)C)ccc2nc(NC(C)(C)C(=O)N(C)CCc3ccccn3)oc(=O)c12` [Compound No.201, [2-(5-methyl-2-{1-methyl-1-[methyl-(2-pyridin-2-yl-ethyl)-carbamoyl]-ethylamino}-4-oxo-4H-benzo[d][1,3]oxazin-6-ylcarbamoyl)-ethyl]-carbamic Acid Tert-Butyl Ester], at HSV-1 protease, the IC50 was 1.1 µM. The EC90 with HSV-1 was more than 12.5 µM.

For `Cc1c(NC(=O)c2cccs2)ccc2nc(N[C@@H](C)C(=O)N(C)CCc3ccccn3)oc(=O)c12` [Compound No.135, Thiophene-2-carboxylic acid (5-methyl-2-{1S-[methyl-(2-pyridin-2-yl-ethyl)-carbamoyl]-ethylamino}-4-oxo-4H-benzo[d][1,3]oxazin-6-yl)-amide], the half-inhibitory concentration (IC50) at HSV-1 protease was determined as 1.3 µM. This compound also yielded an EC90 with HSV-1 of more than 12.5 µM.

On to `Cc1c(NC(=O)CCNC(=O)OC(C)(C)C)ccc2nc(N(C)CC(=O)N(C)CCc3ccccn3)oc(=O)c12` [Compound No.226, {2-[5-methyl-2-(methyl-{[methyl-(2-pyridin-2-yl-ethyl)-carbamoyl]-methyl}-amino)-4-oxo-4H-benzo[d][1,3]oxazin-6-ylcarbamoyl]-ethyl}-carbamic Acid Tert-Butyl Ester], for which the IC50 on HSV-1 protease was 1 µM. In addition, the 90% effect concentration (EC90) in the experiment with HSV-1 was more than 20 µM.

Take `Cc1c(NC(=O)CCNC(=O)c2cccs2)ccc2nc(N[C@@H](C)C(=O)N(C)CCc3ccccn3)oc(=O)c12` [Compound No.215, Thiophene-2-carboxylic acid [2-(5-methyl-2-{1S-[methyl-(2-pyridin-2-yl-ethyl)-carbamoyl]-ethylamino}-4-oxo-4H-benzo[d][1,3]oxazin-6-ylcarbamoyl)-ethyl]-amide]: the IC50 at HSV-1 protease was determined as 3.2 µM. The compound further had a 90% effect concentration (EC90) in the experiment with HSV-1 of more than 12.5 µM.

Regarding `Cc1c(NC(=O)OC(C)(C)C)ccc2nc(NC3(C(=O)N(C)CCc4ccncc4)CCCC3)oc(=O)c12` [Compound No.128, (5-Methyl-2-{1-[methyl-(2-pyridin-4-yl-ethyl)-carbamoyl]-cyclopentylamino}-4-oxo-4H-benzo[d][1,3]oxazin-6-yl)-carbamic acid tert-butyl ester], the IC50 on HSV-1 protease is 0.4 µM. Besides, the EC90 with HSV-1 was determined as 10.1 µM.

Consider `Cc1c(NC(=O)OC(C)(C)C)ccc2nc(NC3(C(=O)N(C)CCc4ccncc4)CC3)oc(=O)c12` [Compound No.127, (5-Methyl-2-{1-[methyl-(2-pyridin-4-yl-ethyl)-carbamoyl]-cyclopropylamino}-4-oxo-4H-benzo[d][1,3]oxazin-6-yl)-carbamic acid tert-butyl ester], for which the IC50 on HSV-1 protease was 1.8 µM. The same compound registered a concentration for an effect of 90% (EC90) in the experiment on HSV-1 of more than 12.5 µM.

In the case of `CCCCc1ccc(C(=O)NCCC(=O)Nc2ccc3nc(NC(C)(C)C(=O)N(C)CCc4ccccn4)oc(=O)c3c2C)cc1` [Compound No.211, 4-Butyl-N-[2-(5-methyl-2-{1-methyl-1-[methyl-(2-pyridin-2-yl-ethyl)-carbamoyl]-ethylamino}-4-oxo-4H-benzo[d][1,3]oxazin-6-ylcarbamoyl)-ethyl]-benzamide], at HSV-1 protease, the IC50 is 0.7 µM. The compound further showed an EC90 in the experiment on HSV-1 of more than 12.5 µM.

For `Cc1c(NC(=O)OC(C)(C)C)ccc2nc(NC3(C(=O)N(C)Cc4ccncc4)CCCC3)oc(=O)c12` [Compound No.121, {5-Methyl-2-[1-(methyl-pyridin-4-ylmethyl-carbamoyl)-cyclopentylamino]-4-oxo-4H-benzo[d][1,3]oxazin-6-yl}-carbamic acid tert-butyl ester], the IC50 at HSV-1 protease is 2.8 µM. In the experiment on HSV-1, this compound returned an EC90 of 11.5 µM.

For the compound `Cc1c(NC(=O)CCNC(=O)c2ccc(C(F)(F)F)cc2)ccc2nc(N[C@@H](C)C(=O)N(C)CCc3ccccn3)oc(=O)c12` [Compound No.216, N-[2-(5-Methyl-2-{1S-[methyl-(2-pyridin-2-yl-ethyl)-carbamoyl]-ethylamino}-4-oxo-4H-benzo[d][1,3]oxazin-6-ylcarbamoyl)-ethyl]-4-trifluoromethyl-benzamide], on HSV-1 protease, the half-inhibitory concentration (IC50) turned out to be 3 µM. Also, the 90% effect concentration (EC90) with HSV-1 is more than 12.5 µM.

Take `Cc1c(NC(=O)OC(C)(C)C)ccc2nc(NC3(C(=O)N(C)CCc4cccnc4)CC3)oc(=O)c12` [Compound No.125, (5-Methyl-2-{1-[methyl-(2-pyridin-3-yl-ethyl)-carbamoyl]-cyclopropylamino}-4-oxo-4H-benzo[d][1,3]oxazin-6-yl)-carbamic acid tert-butyl ester]: the concentration for half-maximal inhibition (IC50) at HSV-1 protease is 2.1 µM. Besides, the concentration for an effect of 90% (EC90) in the experiment with HSV-1 was more than 12.5 µM.

Consider `Cc1c(NC(=O)OC(C)(C)C)ccc2nc(NC(C)(C)C(=O)N(C)Cc3cccnc3)oc(=O)c12` [Compound No.117, {5-Methyl-2-[1-methyl-1-(methyl-pyridin-3-ylmethyl-carbamoyl)-ethylamino]-4-oxo-4H-benzo[d][1,3]oxazin-6-yl}-carbamic acid tert-butyl ester], for which, at HSV-1 protease, the IC50 amounted to 0.7 µM. The compound also showed a concentration for an effect of 90% (EC90) in the experiment on HSV-1 of more than 12.5 µM.
